Results as given in patent US20130261131A1, “PHARMACEUTICAL COMPOSITIONS AND MENTODS FOR TREATMENT OF FUNGAL INFECTIONS” (priority 2012, published 2013).
In brackets after ≈: the same amount, converted by molar mass. Several values for one entry are separate records, joined by “and”; a condition that tells them apart may be missing. Identical values can stand only once.

Legend:
Candida Krusei = assay: agar dilution in vitro activity test; assay type: cell-based; conditions: 22 organisms, Kimmig's agar, 25° C.; for MIC: Pichia kudriavzevii, read-out: GMMICS (geometric mean minimum inhibitory concentration)
Procedure: (§1) Organisms listed in Table 1 were tested according to an agar dilution method: Suspensions of each microorganism were prepared to contain […] colony forming units (cfu)/mL. All drugs were dissolved in a few drops of DMSO then diluted with ethanol—water (1/1, v/v) to make a stock solution of 500 μg/mL. The agar dilution method was performed in a medium of Kimmig's agar (K. A., Merck) −0.5% glycerol [R. A. Fromtling, G. K. Abruzzo and A. Ruiz, Mycopathologia, 106 (1989) 163-166]. Plates of Kimmig's agar containing serial dilutions (25 to 0.01 μg/mL) of the drugs were inoculated with 10 μL of the fungal inocula and incubated at 25° C. […] for yeasts and up to 5 days for filamentous fungi. Following incubation, GMMICs (geometric mean minimum inhibitory concentration μg/mL) were determined. In the table POCZ indicates posaconazole, ITRZ indicates itraconazole, EQUZ indicates Equaconazole, and FLUZ indicates fluconazole [Patterson, T. F., S. G. Revankar, W. R. Kirkpatrick, O. Dib, A. W. Fothergill, S. W. Redding, D. A. Sutton, and M. G. Rinaldi, J. Clin. Microbiol. 34 (1996) 1794-1797].

Cryptococcus neoformans = assay: agar dilution in vitro activity test; assay type: cell-based; conditions: 10 organisms, Kimmig's agar, 25° C.; for MIC: read-out: GMMICS (geometric mean minimum inhibitory concentration)
Procedure: as §1

Trichophyton rubrum = assay: agar dilution in vitro activity test; assay type: cell-based; conditions: 17 organisms, Kimmig's agar, 25° C.; for MIC: read-out: GMMICS (geometric mean minimum inhibitory concentration)
Procedure: as §1

Microsporum canis = assay: agar dilution in vitro activity test; assay type: cell-based; conditions: 6 organisms, Kimmig's agar, 25° C.; for MIC: read-out: GMMICS (geometric mean minimum inhibitory concentration)
Procedure: as §1

Aspergillus Flavus = assay: agar dilution in vitro activity test; assay type: cell-based; conditions: 9 organisms, Kimmig's agar, 25° C.; for MIC: read-out: GMMICS (geometric mean minimum inhibitory concentration)
Procedure: as §1

[1] = tested on: Ergosterol Biosynthesis, Candida albicans_C286; assay: inhibition of ergosterol biosynthesis; assay type: cell-based, Candida albicans; conditions: Candida albicans_C286, RPMI-1640, 30° C., 48 h
Procedure: (§2) Compounds of the invention were tested for their ability to inhibit ergosterol biosynthesis. Testing was performed in 96-well round-bottom microtitration plates (Table 2). Cell suspensions were prepared in RPMI-1640 medium and were adjusted to give a final inoculum concentration of 0.5×10^3 to 2.5×10^3 cells/ml. The plates were incubated incubated at 30° C. for 48 h before growth was assessed. The MIC of each compounds was defined as the lowest concentration at which there was 80% inhibition of growth compared with that in a drug-free control [O. N. Breivik and J. L. Owades, Agric. Food Chem., 5 (1957) 360-363; T. F. Patterson, S. G. Revankar, W. R. Kirkpatrick, O. Dib, A. W. Fothergill, S. W. Redding, D. A. Sutton and M. G. Rinaldi, J. Clin. Microbiol., 34 (1996) 1794-1797]. Ergosterol content was calculated as a percentage of the wet weight of the cell [National Committee for Clinical Laboratory Standards. 1997. Reference method for broth dilution antifungal susceptibility testing of yeasts, Approved standard. Document M27-A, National Committee for Clinical Laboratory Standards, Wayne, Pa.].

[2] = PK study of antifungal nasal spray, plasma level after intranasal dosing; assay type: in vivo, Gottingen mini-pigs
Procedure: Experiments were performed to determine blood levels of Posaconazole formulation after intranasal dosing in Gottingen mini-pigs. A Group of three male and three female mini-pigs (ages from 6 to 9 months) were used for the studies. The vehicle used in the experiments was 5% of PEG-12 GDM in saline solution. The intranasal administration was performed with 35 mL of Luer slip syringes. HPLC-MS analyses were performed on heparinized mini-pig plasma samples obtained typically at 0 hr, 0.08 hr, 1 hr, 2 hr, 4 hr, 12 hr and 24 hr after dosing. The drug was first isolated from plasma with a sample pre-treatment. Acetonitrile were used to remove proteins in samples. An isocratic HPLC-MS method was then used to separate the drug from any potential interference. Drug levels were measured by MS detection with a multiple reaction monitoring (MRM) mode.

[3] = tested on: Ergosterol Biosynthesis, Aspergillus fumigatus_ND 158; assay: inhibition of ergosterol biosynthesis; assay type: cell-based, Aspergillus fumigatus; conditions: Aspergillus fumigatus_ND 158, RPMI-1640, 30° C., 48 h
Procedure: as §2

CCC(C)n1ncn(-c2ccc(N3CCN(c4ccc(OCC5COC(Cn6cncn6)(c6ccc(Cl)cc6Cl)O5)cc4)CC3)cc2)c1=O (stereo not drawn) [ITRZ, itraconazole]
MIC (Candida Krusei): 0.6 µg/mL (≈ 0.85 µM)
MIC (Cryptococcus neoformans): 0.49 µg/mL (≈ 0.694 µM)
MIC (Trichophyton rubrum): 3.1 µg/mL (≈ 4.39 µM)
MIC (Microsporum canis): 1.2 µg/mL (≈ 1.7 µM)
MIC (Aspergillus Flavus): 0.35 µg/mL (≈ 0.496 µM)
IC50 [1]: 39.1 nM

CC[C@@H]([C@H](C)O)n1ncn(-c2ccc(N3CCN(c4ccc(OC[C@@H]5CO[C@@](Cn6cncn6)(c6ccc(F)cc6F)C5)cc4)CC3)cc2)c1=O [POCZ, posaconazole]
Posaconazole Level in Mini-pig Plasma ([2]; 0.08 hour after intranasal dosing, 5% PEG-12 GDM in saline, individual animals, female mini-pigs): 1.23 ng/mL and 1.39 ng/mL and 1.21 ng/mL
Posaconazole Level in Mini-pig Plasma ([2]; 0.08 hour after intranasal dosing, 5% PEG-12 GDM in saline, individual animals, male mini-pigs): 1.74 ng/mL and 1.56 ng/mL
Posaconazole Level in Mini-pig Plasma ([2]; 1 hour after intranasal dosing, 5% PEG-12 GDM in saline, individual animals, female mini-pigs): 2.06 ng/mL and 1.86 ng/mL and 1.26 ng/mL
Posaconazole Level in Mini-pig Plasma ([2]; 1 hour after intranasal dosing, 5% PEG-12 GDM in saline, individual animals, male mini-pigs): 1.24 ng/mL and 1.26 ng/mL
Posaconazole Level in Mini-pig Plasma ([2]; 4 hour after intranasal dosing, 5% PEG-12 GDM in saline, individual animals, female mini-pigs): 1.28 ng/mL and 1.17 ng/mL and 1.56 ng/mL
Posaconazole Level in Mini-pig Plasma ([2]; 4 hour after intranasal dosing, 5% PEG-12 GDM in saline, individual animals, male mini-pigs): 1.42 ng/mL and 1.46 ng/mL
Posaconazole Level in Mini-pig Plasma ([2]; 12 hour after intranasal dosing, 5% PEG-12 GDM in saline, individual animals, female mini-pigs): 2.03 ng/mL and 2.44 ng/mL and 2.35 ng/mL
Posaconazole Level in Mini-pig Plasma ([2]; 12 hour after intranasal dosing, 5% PEG-12 GDM in saline, individual animals, male mini-pigs): 2.41 ng/mL and 1.93 ng/mL
Posaconazole Level in Mini-pig Plasma ([2]; 24 hour after intranasal dosing, 5% PEG-12 GDM in saline, individual animals, female mini-pigs): 1.17 ng/mL and 2.04 ng/mL and 1.46 ng/mL
Posaconazole Level in Mini-pig Plasma ([2]; 24 hour after intranasal dosing, 5% PEG-12 GDM in saline, individual animals, male mini-pigs): 1.86 ng/mL and 1.66 ng/mL
concentration at 0.08 h ([2]; both sexes, Gottingen, minipig, plasma, other: intranasal, 0.08 hour after intranasal dosing, 5% PEG-12 GDM in saline, individual animals, read-out: Posaconazole Level in Mini-pig Plasma): 1.35 ng/mL
concentration at 1 h ([2]; both sexes, Gottingen, minipig, plasma, other: intranasal, 1 hour after intranasal dosing, 5% PEG-12 GDM in saline, individual animals, read-out: Posaconazole Level in Mini-pig Plasma): 1.62 ng/mL
concentration at 4 h ([2]; both sexes, Gottingen, minipig, plasma, other: intranasal, 4 hour after intranasal dosing, 5% PEG-12 GDM in saline, individual animals, read-out: Posaconazole Level in Mini-pig Plasma): 1.26 ng/mL
concentration at 12 h ([2]; both sexes, Gottingen, minipig, plasma, other: intranasal, 12 hour after intranasal dosing, 5% PEG-12 GDM in saline, individual animals, read-out: Posaconazole Level in Mini-pig Plasma): 1.96 ng/mL
concentration at 24 h ([2]; both sexes, Gottingen, minipig, plasma, other: intranasal, 24 hour after intranasal dosing, 5% PEG-12 GDM in saline, individual animals, read-out: Posaconazole Level in Mini-pig Plasma): 1.86 ng/mL
amount detected in mini-pig plasma after dosing (in words) ([2]; intranasal dosing with formulated Posaconazole): Only trace amounts
MIC (Candida Krusei): 0.21 µg/mL (≈ 0.3 µM)
MIC (Cryptococcus neoformans): 0.24 µg/mL (≈ 0.342 µM)
MIC (Trichophyton rubrum): 1.2 µg/mL (≈ 1.71 µM)
MIC (Microsporum canis): 0.5 µg/mL (≈ 0.713 µM)
MIC (Aspergillus Flavus): 0.12 µg/mL (≈ 0.171 µM)

Equaconazole [EQUZ]
GMMICS (geometric mean minimum inhibitory concentration) (Candida Krusei): 0.15 µg/mL
GMMICS (geometric mean minimum inhibitory concentration) (Cryptococcus neoformans): 0.25 µg/mL
GMMICS (geometric mean minimum inhibitory concentration) (Trichophyton rubrum): 0.10 µg/mL
GMMICS (geometric mean minimum inhibitory concentration) (Microsporum canis): 0.35 µg/mL
GMMICS (geometric mean minimum inhibitory concentration) (Aspergillus Flavus): 0.09 µg/mL
IC50 [1]: 31.1 nM
IC50 [3]: 9.8 nM

OC(Cn1cncn1)(Cn1cncn1)c1ccc(F)cc1F [FLUZ, fluconazole]
MIC (Candida Krusei): 65 µg/mL (≈ 212 µM)
MIC (Cryptococcus neoformans): 45 µg/mL (≈ 147 µM)
MIC (Trichophyton rubrum): 105 µg/mL (≈ 343 µM)
MIC (Microsporum canis): 151 µg/mL (≈ 493 µM)
MIC (Aspergillus Flavus): > 235 µg/mL
